Laboratory results from paper PMC13224100, “Esterase-Responsive Mitochondria-Targeted Hydropersulfide Donors Mitigate Doxorubicin Cardiotoxicity While Preserving Anticancer Activity” (Angewandte Chemie (International ed. in English), 2025).

How the values were obtained:
Format in all cases: cell-based
[1] = tested on: MDA-MB-468 cells; experiment: Effect of RSSH donors on anticancer activity of DOX, CCK-8; settings: 4 h pretreatment, then 24 h co-treatment with DOX 5 μM
Procedure: (§1) We next evaluated the effects of RSSH donors on DOX activity in three representative cancer cell lines: triple-negative breast cancer MDA-MB-468, ER-positive breast cancer MCF-7, and hepatocellular carcinoma HepG2.
(§2) Figure 5. Effect of RSSH donors on anticancer activity of DOX in cancer cells. MDA-MB-468, MCF-7, and HepG2 cells were pretreated with APT-1 or its mitochondria-targeted analog APT-1-TPP for 4 h, followed by co-treatment with DOX (5 μM for MDA-MB-468 and HepG2; 15 μM for MCF-7) for an additional 24 h. Results are presented as mean ± SEM, n = 3; *p < 0.05, **p < 0.01, ***p < 0.001, ****p < 0.0001. Ctl = vehicle-treated group (0.01% DMSO in medium). […]
(§3) Cytoprotective Effects of RSSH Donors against Doxorubicin Toxicity
(§4) Cytoprotective studies were performed as previously described.[8] Briefly, H9c2 cells, HepG2 cells, MDA-MB-468 cells, and MCF-7 cells were seeded at a density of 7 x 10^3 cells/well. […] Additionally, in the vehicle control group, cells were treated with medium (DMEM with 10% FBS) containing 0.01% DMSO only. The cells were then further incubated for an additional 4 h before being treated with DOX (10 μL/well, with final concentration of 5 μM). After a 24 h co-incubation with DOX, each well was carefully washed three times with PBS (pH 7.4) and 100 μL o f F B S-free medium containing 10% v/v CCK-8 (Dojindo) was added. The plates were then incubated for 1-2 h before measuring absorbance at […]
(§5) The relative % cell viability was calculated as 100 times the ratio of Abs450 (RSSH donor + DOX-exposed) to Abs450 (vehicle, non-DOX-exposed). Each treatment condition was performed in 6 technical replicates per biological replicate, and the experiment was independently repeated three times (n = 3 biological replicates). Data are presented as mean ± SEM. […]

[2] = tested on: HepG2 cells; experiment: as above; settings: 4 h pretreatment, then 24 h co-treatment with DOX 5 μM
Procedure: as §1, §2, §3, §4, §5

[3] = tested on: MCF-7 cells; experiment: as above; settings: 4 h pretreatment, then 24 h co-treatment with DOX 15 μM
Procedure: as §1, §2, §3, §4, §5

[4] = tested on: H9c2 cells; experiment: Mitochondrial membrane potential (TMRM) under DOX; settings: donor 25 μM, 4 h pretreatment, DOX 5 μM 24 h
Procedure: (§6) Figure 6. a) Basal sulfane sulfur (SS) levels in H9c2 cardiomyocyte, MDA-MB-468, MCF-7, and HepG2 cell lines as detected by SSP4 fluorescence. b) Representative images and c) basal levels of mitochondrial membrane potential (MMP) in H9c2 and cancer cells (MDA-MB-468, MCF-7, and HepG2). d) Impact of APT-1 (25 μM) or APT-1-TPP (25 μM) on MMP in DOX (5 μM)-treated (d) H9c2 and e) HepG2 cells. Impact of APT-1 (25 μM) and APT-1-TPP (25 μM) on ATP levels in DOX (5 μM)-treated f) H9c2 and g) HepG2 cells. Results are expressed as mean ± SEM, n = 3–6; *P < 0.05, **P < 0.01, ***P < 0.001, ****P < 0.0001. Significances in (a) and (c) are presented with respect to H9c2 cells.
(§7) We then examined how RSSH donors influence MMP during DOX exposure. As expected, DOX alone induced mitochondrial depolarization in H9c2 cells, reducing MMP to ca. 50% of control (Figure 6d). […] To complement these observations, we quantified intracellular ATP levels as a functional readout of mitochondrial activity. […]
(§8) Mitochondrial Membrane Potential Measurements
(§9) Mitochondrial membrane potential was measured using Image-iT™ TMRM Reagent (Cat#I34361, Invitrogen, USA) according to the manufacturer's protocols. […]
(§10) The cells were incubated for an additional 24 h. After completion of treatment, cells were washed with a warm clear DMEM medium (with 10% FBS) and incubated in culture media containing TMRM (working solution 100 nM) for 30 min at 37 °C. Cells were then washed with a warm clear FBS-free DMEM medium (3 times) before imaging. Images were obtained with Zeiss LSM 800 with AiryScan Confocal (λex = 548 nm, λem = 573 nm). During each experiment, 6 field images were obtained for each experimental group. Images were analyzed using Image J software, and all cells in each image were selected for fluorescence intensity measurement (cell-free space was also measured as blank). H9c2 signal intensity was set to 100% and signal intensity for all the other cell lines was shown as a percentage of that of H9c2.
(§11) The experiments were independently repeated three times (n = 3 biological replicates). Data are […]
(§12) Figure S24. Representative TMRM images for mitochondrial membrane potential (MMP) in H9c2 and HepG2 cells with APT-1 and APT-1-TPP treatment under DOX stress. Ctl = vehicle (medium with 0.01% […]
(§13) (1 picture or pasted object on this page, not shown here)

[5] = tested on: HepG2 cells; experiment: Mitochondrial membrane potential (TMRM) under DOX; settings: donor 25 μM, 4 h pretreatment, DOX 5 μM 24 h
Procedure: as §6, §7, §8, §9, §10, §11, §12, §13

CC(=O)NC(C(=O)N(C)CCC[P+](c1ccccc1)(c1ccccc1)c1ccccc1)C(C)(C)SSC(=O)N(C)CCOC(C)=O (centres unmarked) [APT-1-TPP]
concentration that modestly enhanced DOX's anticancer activity [1]: ≥ 100 µM | effect on DOX cytotoxicity [1]: no protective effect | effect on DOX cytotoxicity [2]: potentiated DOX cytotoxicity in a dose-dependent manner | effect on DOX cytotoxicity [3]: synergistically enhanced its activity | effect on DOX-induced loss of MMP [4]: conferred protection, though to a slightly lesser extent | effect on DOX-induced mitochondrial depolarization [5]: further exacerbated MMP loss

COC(=O)C(NC(C)=O)C(C)(C)SSC(=O)N(C)CCOC(C)=O (centres unmarked) [APT-1]
effect on DOX cytotoxicity [1]: did not provide cytoprotection | effect on DOX cytotoxicity [2]: no protective effect | effect on DOX cytotoxicity [3]: did not blunt DOX cytotoxicity | effect on DOX-induced loss of MMP [4]: preserved MMP | effect on DOX-induced mitochondrial depolarization [5]: neither donor prevented DOX-induced mitochondrial depolarization
